Our source for the IC50 values is ChEMBL document CHEMBL1129057, “Structure-based alignment and comparative molecular field analysis of acetylcholinesterase inhibitors” (J Med Chem, 1996).

T1 sequence (P04058 whole entry): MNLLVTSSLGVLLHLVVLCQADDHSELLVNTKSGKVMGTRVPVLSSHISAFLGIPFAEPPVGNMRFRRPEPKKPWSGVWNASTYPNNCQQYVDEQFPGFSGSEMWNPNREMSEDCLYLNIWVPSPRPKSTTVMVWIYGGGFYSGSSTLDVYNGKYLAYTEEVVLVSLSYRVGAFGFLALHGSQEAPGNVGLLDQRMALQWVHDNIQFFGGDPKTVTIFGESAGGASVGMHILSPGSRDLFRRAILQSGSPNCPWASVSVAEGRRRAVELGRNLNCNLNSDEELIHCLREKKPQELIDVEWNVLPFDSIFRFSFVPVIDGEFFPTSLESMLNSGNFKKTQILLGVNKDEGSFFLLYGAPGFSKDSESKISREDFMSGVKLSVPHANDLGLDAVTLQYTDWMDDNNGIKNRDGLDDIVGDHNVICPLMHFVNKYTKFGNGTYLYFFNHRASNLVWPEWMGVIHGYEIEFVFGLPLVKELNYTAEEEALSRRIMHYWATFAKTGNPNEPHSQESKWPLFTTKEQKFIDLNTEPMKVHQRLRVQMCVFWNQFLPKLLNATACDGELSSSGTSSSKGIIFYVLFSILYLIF

One assay concerns the target T1, Acetylcholinesterase (Torpedo californica, UniProt P04058). Also noted: species or system Tetronarce californica.
Description: (§1) Inhibitory activity against Acetylcholinesterase
The molecule `CC(=O)Nc1cccc([N+](C)(C)C)c1` came in with an IC50 of 1000 µM. In turn, `C[N+](C)(C)CCS` had an IC50 of 440 µM. Still for that read-out and setting: next, `CC(=O)CCC[N+](C)(C)C`: 84.8 µM; `C[N+](C)(C)CCCl` [CHLORMEQUAT CHLORIDE]: 2390 µM. On the same count and under the same terms, next, `C[N+](C)(C)CCCCCBr`: 534 µM. On the same count and under the same terms, next, `C[N+]1(C)CCO[C@@](O)(c2ccc(N)cc2)C1`: 691 µM; `C[N+]1(C)CCO[C@@](O)(c2ccc(Cl)cc2)C1`: 8130 µM; `C[N+](C)(C)CCCCI`: 471 µM. In turn, `C=CC[N+](C)(C)C` displayed an IC50 of 2920 µM. The same measure, in the same setting: next, `C=CCCCN(C)C`: 1130 µM; `CCCC(=O)SCC[N+](C)(C)C`: 126 µM.

`C[N+]1(C)CCO[C@H](O)C1` showed a half-maximal inhibitory concentration (IC50) of 1760 µM. The same measure, in the same setting: in the case of `CC(=O)Nc1ccc([C@@]2(O)C[N+](C)(C)CCO2)cc1` it was 2070 µM; in that of `C[C@@]1(O)C[N+](C)(C)CCO1`, 1730 µM. The same measure, in the same setting: next, `CCOCC[N+](C)(C)C`: 1160 µM; `CCCCCC[N+](C)(C)C`: 816 µM; `CCCC(=O)OCC[N+](C)(C)C`: 229 µM. Still for that read-out and setting: next, `C=CCC[N+](C)(C)C`: 848 µM; `C[N+]1(C)CCO[C@@](O)(c2ccc([N+](=O)[O-])cc2)C1`: 5120 µM.

On to `C[N+](C)(C)c1cccc(N)c1`, for which inhibition was half-maximal at 192 µM (IC50). In turn, `C[N+]1(C)CCO[C@@](O)(C(F)(F)F)C1` showed a half-inhibitory concentration (IC50) of 3830 µM. The same measure, in the same setting: next, `C[N+](C)(C)CCCCBr`: 597 µM. For the molecule `CCSCC[N+](C)(C)C`, the half-maximal inhibitory concentration (IC50) was determined as 1510 µM. Still for that read-out and setting: next, `C[N+]1(C)CCO[C@@](O)(c2ccc(C#N)cc2)C1`: 11600 µM; `C[N+](C)(C)CCCBr`: 87.9 µM. On the same count and under the same terms, in the case of `CC(C)(C)[C@@]1(O)C[N+](C)(C)CCO1` it was 3710 µM.

For a further assay, the target named is T1, Acetylcholinesterase. The source holds these as a separate data set.
Description: as §1
For `C[N+](C)(C)c1cccc([N+](=O)[O-])c1`, the 50% inhibitory concentration (IC50) stood at 628 µM.

Another assay deals with Acetylcholinesterase (Homo sapiens, UniProt P22303).
Acetylcholinesterase (Homo sapiens, UniProt P22303), sequence (P22303 whole entry): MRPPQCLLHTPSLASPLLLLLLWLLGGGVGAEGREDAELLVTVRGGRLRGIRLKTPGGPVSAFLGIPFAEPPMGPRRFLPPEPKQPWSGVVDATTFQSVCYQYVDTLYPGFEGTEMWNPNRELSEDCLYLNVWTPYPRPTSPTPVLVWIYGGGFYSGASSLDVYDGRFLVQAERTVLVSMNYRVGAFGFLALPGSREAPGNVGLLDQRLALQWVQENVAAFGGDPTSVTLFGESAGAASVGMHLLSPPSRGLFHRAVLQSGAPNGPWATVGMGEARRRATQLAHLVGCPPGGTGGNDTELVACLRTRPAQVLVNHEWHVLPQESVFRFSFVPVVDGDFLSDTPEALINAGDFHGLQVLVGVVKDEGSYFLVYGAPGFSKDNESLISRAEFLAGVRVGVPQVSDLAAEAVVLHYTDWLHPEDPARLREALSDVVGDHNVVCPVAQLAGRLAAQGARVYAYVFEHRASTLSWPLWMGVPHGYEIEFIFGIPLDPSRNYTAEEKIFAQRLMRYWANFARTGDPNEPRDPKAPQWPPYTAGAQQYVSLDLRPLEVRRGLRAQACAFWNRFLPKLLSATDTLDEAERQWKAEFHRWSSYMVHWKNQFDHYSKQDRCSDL
Description: as §1
Regarding `CN(C)C(=O)Oc1ccc2c(c1)[C@]1(C)CCN(C)C1N2C` (some centres not stated), it took 0.97 µM to reach half-maximal inhibition (IC50). Same read-out and setting: in the case of `CN1CC[C@@]2(C)c3cc(OC(=O)NCc4ccccc4)ccc3N(C)C12` (some centres not stated) it was 0.46 µM. Molecule `CNC(=O)Oc1ccc2c(c1)[C@]1(C)CC[N+](C)(C)C1N2C` (some centres not stated) yielded a half-maximal inhibitory concentration (IC50) of 0.034 µM. On the same count and under the same terms, next, `CCN(CC)C(=O)Oc1ccc2c(c1)[C@]1(C)CCN(C)C1N2C` (some centres not stated): 40 µM; `CN1CC[C@@]2(C)c3cc(OC(=O)Nc4ccc(Cl)cc4)ccc3N(C)C12` (some centres not stated): 1.8 µM.

The molecule `CN(C(=O)NCc1ccccc1)C(=O)Oc1ccc2c(c1)[C@]1(C)CCN(C)C1N2C` (some centres not stated) yielded a half-inhibitory concentration (IC50) of 6.3 µM. Same read-out and setting: in the case of `CCCCNC(=O)Oc1ccc2c(c1)[C@]1(C)CCN(C)C1N2C` (some centres not stated) it was 0.152 µM; in that of `CC(C)NC(=O)Oc1ccc2c(c1)[C@]1(C)CCN(C)C1N2C` (some centres not stated), 35 µM. The same measure, in the same setting: next, `CN1CC[C@@]2(C)c3cc(OC(=O)Nc4ccccc4)ccc3N(C)C12` (some centres not stated): 0.35 µM.

The target in the next assay is Acetylcholinesterase (Electrophorus electricus, UniProt O42275).
Acetylcholinesterase (Electrophorus electricus, UniProt O42275), sequence (O42275 whole entry): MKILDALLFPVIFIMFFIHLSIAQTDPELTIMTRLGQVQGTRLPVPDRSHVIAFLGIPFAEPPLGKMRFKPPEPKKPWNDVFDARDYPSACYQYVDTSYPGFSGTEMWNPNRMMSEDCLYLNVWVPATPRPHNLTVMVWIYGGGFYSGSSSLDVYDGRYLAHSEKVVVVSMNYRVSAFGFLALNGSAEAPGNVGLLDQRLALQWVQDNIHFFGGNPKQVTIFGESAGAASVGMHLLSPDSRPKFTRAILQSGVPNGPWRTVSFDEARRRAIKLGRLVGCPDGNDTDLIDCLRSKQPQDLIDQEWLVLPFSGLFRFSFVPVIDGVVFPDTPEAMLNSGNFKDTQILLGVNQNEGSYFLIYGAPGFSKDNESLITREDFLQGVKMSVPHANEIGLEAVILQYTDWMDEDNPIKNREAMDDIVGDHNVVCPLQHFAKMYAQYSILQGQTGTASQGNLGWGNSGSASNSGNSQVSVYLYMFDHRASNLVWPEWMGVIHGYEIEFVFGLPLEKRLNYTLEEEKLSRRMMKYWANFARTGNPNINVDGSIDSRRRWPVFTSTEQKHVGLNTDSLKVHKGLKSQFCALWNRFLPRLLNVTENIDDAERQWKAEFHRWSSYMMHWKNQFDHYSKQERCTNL
Description: as §1
Take `CCC(=O)Oc1cccc([N+](C)(C)C)c1C`: the midpoint of inhibition, the IC50, lay at 754 µM. Still for that read-out and setting: in the case of `COc1cc([N+](C)(C)C)ccc1C` it was 122 µM.

Molecule `CC(=O)Oc1cc([N+](C)(C)C)ccc1C` registered a concentration for half-maximal inhibition (IC50) of 0.659 µM. Still for that read-out and setting: next, `Cc1c(O)cccc1[N+](C)(C)C`: 141 µM. In turn, `CCC(=O)Oc1cccc([N+](C)(C)C)c1` displayed a half-inhibitory concentration (IC50) of 5.97 µM. On the same count and under the same terms, in the case of `CC(=O)Oc1cccc([N+](C)(C)C)c1` it was 3.01 µM. Still for that read-out and setting: next, `CC(=O)Oc1ccc(C)c([N+](C)(C)C)c1`: 5.34 µM; `COc1cccc([N+](C)(C)C)c1C`: 239 µM; `CC(=O)Oc1cccc([N+](C)(C)C)c1C`: 40.8 µM. On the same count and under the same terms, in the case of `CCC(=O)Oc1ccc(C)c([N+](C)(C)C)c1` it was 69.1 µM; in that of `COc1cccc([N+](C)(C)C)c1`, 597 µM. In turn, `COc1ccc(C)c([N+](C)(C)C)c1` came in with an IC50 of 345 µM. In the case of `CCC(=O)Oc1cc([N+](C)(C)C)ccc1C`, the midpoint of inhibition, the IC50, lay at 3.77 µM. Same read-out and setting: next, `C[N+](C)(C)c1cccc(O)c1`: 0.973 µM; `Cc1ccc(O)cc1[N+](C)(C)C`: 2.83 µM; `Cc1ccc([N+](C)(C)C)cc1O`: 3.11 µM.

For orientation: IC50 means the point on the concentration scale where inhibition reaches its midpoint. A high value points to lower potency.
